pIC50: −log10 of the molar value.
Key:
rat alkaline phosphatase = assay: p-nitrophosphate hydrolysis by rat alkaline phosphatase; type: biochemical
Protocol: The results shown in Example A used a 3-second exposure of vesicles and substrates and a 5 minute exposure of vesicles to 2′-FPP. Prior exposure and degradation of 2′-PP in contrast to 2′-FPP could be contributing to the increased potency of 2′-FPP as compared to 2′-PP. To examine this possibility the effect of phosphophloretins on p-nitrophosphate hydrolysis by rat alkaline phosphatase and intestinal BBMV phosphatases was examined.

[1] = target: T1, intestinal Na-phosphate cotransporter (Rattus norvegicus, UniProt Q9JJ09); type: biochemical; design: other: intestinal BBMV; 3-second exposure of vesicles and substra; 2′-FPP vs 2′-PP; conditions: read-out: IC50 for inhibition of Na-dependent phosphate uptake
T1 sequence (Q9JJ09 1-695): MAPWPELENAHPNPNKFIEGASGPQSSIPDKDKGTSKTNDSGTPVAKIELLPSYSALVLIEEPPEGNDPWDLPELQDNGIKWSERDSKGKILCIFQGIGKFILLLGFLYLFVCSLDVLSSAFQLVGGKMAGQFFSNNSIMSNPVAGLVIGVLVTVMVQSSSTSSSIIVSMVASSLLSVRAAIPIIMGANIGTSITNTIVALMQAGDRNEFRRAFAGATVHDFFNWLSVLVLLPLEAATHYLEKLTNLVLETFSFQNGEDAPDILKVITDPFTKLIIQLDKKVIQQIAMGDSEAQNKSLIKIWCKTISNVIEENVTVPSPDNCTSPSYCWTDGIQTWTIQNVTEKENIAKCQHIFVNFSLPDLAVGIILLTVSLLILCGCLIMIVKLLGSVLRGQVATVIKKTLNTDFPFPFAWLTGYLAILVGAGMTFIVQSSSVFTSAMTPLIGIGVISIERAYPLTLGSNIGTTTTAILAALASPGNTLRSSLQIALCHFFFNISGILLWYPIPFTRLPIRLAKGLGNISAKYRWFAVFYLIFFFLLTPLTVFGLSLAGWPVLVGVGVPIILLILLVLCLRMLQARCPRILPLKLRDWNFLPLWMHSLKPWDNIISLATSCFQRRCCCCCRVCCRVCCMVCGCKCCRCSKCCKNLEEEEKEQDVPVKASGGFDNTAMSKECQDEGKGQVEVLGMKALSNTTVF

[2] = rat, in vivo
[3] = rat, in vivo; remark: listed apart in the source
[4] = target: T1, intestinal Na-phosphate cotransporter; type: biochemical
[5] = system: intestinal BBMV phosphatases; type: biochemical
[6] = target: T2, intestinal brush border membrane Na/phosphate cotransporter, NaPi 2b (Rattus norvegicus, UniProt Q9JJ09); assay: cell-based; type: cell-based
T2 construct: Rat duodenum/jejunum intestinal strips 1 cm square were incubated in DMEM; from tissue; host or cells: rat duodenum/jejunum intestinal strips
T2 sequence (Q9JJ09 1-695): T1 sequence (Q9JJ09 1-695)

Glucose uptake = type: cell-based, rat

Compound: O=C(CCc1ccc(O)cc1)c1c(O)cc(O)cc1OP(=O)(O)O
- inhibition of alkaline phosphatase activity, compared with 2′-FPP (rat alkaline phosphatase): better inhibitor
- pIC50 [1]: 7.34
- side effects [2]: no side effects
- change in serum Ca2+ [3]: no change
- decrease in serum phosphorus [3]: 30%
- decrease of IC50 on addition of alkaline phosphatase inhibitors [4]: 34%
- inhibition of intestinal BBMV phosphatase activity [5]: approximately 50%
- pIC50 [6]: 4.82
- Maximum inhibition of total phosphate absorption [6]: 43±6%
- inhibition of phosphate uptake [6]: 40%
- inhibition of phosphate uptake 6 hours post-drug exposure [6]: less than 35%
- Glucose uptake (Glucose uptake): unaffected
